Target: Alkaline phosphatase, placental type (Homo sapiens, UniProt P05187)
Test: PLAP enzyme activators, dose response, selectivity assay for human IAP activator project, biochemical, uHTS hits, luminescence (AID 488888)

Chain of Alkaline phosphatase, placental type (P05187 whole entry, looked up): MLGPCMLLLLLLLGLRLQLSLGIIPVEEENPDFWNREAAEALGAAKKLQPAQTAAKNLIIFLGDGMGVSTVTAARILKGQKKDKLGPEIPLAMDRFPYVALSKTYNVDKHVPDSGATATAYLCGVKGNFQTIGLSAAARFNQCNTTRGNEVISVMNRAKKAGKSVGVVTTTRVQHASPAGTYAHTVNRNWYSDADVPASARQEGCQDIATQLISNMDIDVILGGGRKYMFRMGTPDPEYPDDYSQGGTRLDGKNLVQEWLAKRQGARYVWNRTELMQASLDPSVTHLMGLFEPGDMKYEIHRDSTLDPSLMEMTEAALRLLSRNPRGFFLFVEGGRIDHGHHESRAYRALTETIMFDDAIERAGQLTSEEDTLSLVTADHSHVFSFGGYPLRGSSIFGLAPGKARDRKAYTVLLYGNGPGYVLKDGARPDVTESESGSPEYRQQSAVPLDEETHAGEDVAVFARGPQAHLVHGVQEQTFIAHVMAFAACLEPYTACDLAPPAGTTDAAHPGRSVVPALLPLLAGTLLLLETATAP

| Structure (SMILES) | EC50 |
| --- | --- |
| C=c1[nH]n(-c2nc3ccccc3[nH]2)c(=O)c1=CN(C)C [(4E)-2-(1H-benzimidazol-2-yl)-4-(dimethylaminomethylidene)-5-methyl-pyrazol-3-one] | 15.3 µM |
| Cn1c(C(C#N)C(=O)c2ccc(Br)s2)nc2ccccc21 (stereo unspecified) [MLS001167394] | 62.2 µM |
| COc1cccc(C=NNC(=O)c2[nH][nH]c(=O)c2C)c1O [N'-[(E)-(5-methoxy-6-oxidanylidene-cyclohexa-2,4-dien-1-ylidene)methyl]-4-methyl-5-oxidanylidene-1,4-dihydropyrazole-3-carbohydrazide] | 7.82 µM |
| O=c1c2ccccc2nc(N=NCc2c(O)ccc3ccccc23)n1O [SMR000145705] | 35.2 µM |
| O=C(Nn1c(O)csc1=S)C(=O)Nn1c(O)csc1=S [SMR000349781] | 14.5 µM |
| CCOC(=O)c1c(C)[nH]c(C(=O)N/N=C/C2C=C([N+](=O)[O-])C=CC2=O)c1C (stereo unspecified) [ethyl 2,4-dimethyl-5-[[[(E)-(3-nitro-6-oxocyclohexa-2,4-dien-1-ylidene)methyl]amino]carbamoyl]-1H-pyrrole-3-carboxylate] | 23.2 µM |

More lines, now with the values ahead:

| EC50 | Structure (SMILES) |
| --- | --- |
| 13.2 µM | Cc1c(C(=O)NN=Cc2ccc(O)cc2O)[nH][nH]c1=O |
| 25.5 µM | Cc1cc(Br)ccc1SCC(=O)OCC(=O)C(C#N)c1nc2ccccc2[nH]1 (stereo unspecified) [2-[(4-bromo-2-methylphenyl)thio]acetic acid [3-cyano-3-(1,3-dihydrobenzimidazol-2-ylidene)-2-oxopropyl] ester] |
| 13.4 µM | CCc1ccc(CN=Nc2ncnc3nc[nH]c23)cc1 [MLS000419199] |
| 9.75 µM | O=Nc1[nH]c(=O)c(CC(=O)c2ccccc2)nc1NO [SMR000539633] |
| > 100 µM | O=C(O)[C@H]1O[C@@H](Oc2c(-c3ccc(O)c(O)c3)oc3cc(O)cc(=O)c-3c2O)[C@H](O)[C@@H](O)[C@@H]1O [quercetin glucuronide] |
